18 compounds from patent US8552176B2 (priority 2010, dated 2013) can be followed below.

Usually GI50 stands for the concentration at which growth is held to half of that of the control.

Common to all, as to assay: cells
Holding throughout (format): cell-based, human

The test system of test [1] is DU-145. The note with it: read-out: GI50 DU-145 prostate.
In test [2] the test system is HT29. The following applies: read-out: GI50 HT29 colorectal.
In test [3] the test system is MCF7. The note with it: read-out: GI50 MCF7 breast.
The test system of test [4] is NCI-H460. The following applies: read-out: GI50 NCI-H460 lung.
Test [5] deals with SKOV3. The following applies: read-out: GI50 SKOV3 ovary.
Test [6] has as its system SF-268. The note with it: read-out: GI50 SF-268 CNS.
For test [7], the system named is A549. The following applies: read-out: GI50 A549 lung (+p53).
For test [8], the system named is HCT-15. The following applies: read-out: GI50 HCT-15 colorectal.
Test [9] has as its system Hep3b. The note with it: read-out: GI50 Hep3b liver.
Test [10] has as its system H1299. The note with it: read-out: GI50 H1299 lung (−p53).

As to `CON(CCCCc1ccc(N(CCCl)CCCl)cc1)C1CC(O)C(O)CO1` (mixture of isomers) [Compound 56], the GI50 in test [1] stood at 3.3 ± 0.1 µM; in [2] it was 2300 ± 100 nM; in test [3] it was 1.3 ± 0.2 µM; in test [4], 5.2 ± 0.6 µM; in [5], 2200 ± 100 nM; in test [6] it was 2000 ± 100 nM. The GI50 is 2.5 ± 0.1 µM in test [7], 2200 ± 100 nM in test [8], 2.5 ± 0.1 µM in [9] and 3900 ± 500 nM in test [10].
As for `CC(=O)OC1COC(N(CCCCc2ccc(N(CCCl)CCCl)cc2)OC(C)=O)C(OC(C)=O)C1OC(C)=O` (mixture of isomers) [Compound 69, N-Acetoxy-4-(4-N′,N′-bis(2-chloroethyl)amino)phenylbutylamino-D-riboside peracetate], the GI50 is more than 5 µM in test [1]; 960 ± 70 nM in [2]; 4.6 ± 0.3 µM in [3]; 1.3 ± 0.1 µM in test [4]; 530 ± 10 nM in test [5]; 1600 ± 100 nM in test [6]. Also, the GI50 is 1.12 ± 0.07 µM in test [7], 1100 ± 100 nM in test [8], more than 5 µM in [9] and 1050 ± 50 nM in test [10].
Turning to `O=C(CCCc1ccc(N(CCCl)CCCl)cc1)NN=CC(O)C(O)CO` (mixture of isomers) [Compound 74, 4-(4-N′,N′-bis(2-chloroethyl)amino)phenylbutylhydrazido-D-threoside inline], the GI50 in [1] was determined as 9.5 ± 0.7 µM; in [2] it was 4800 ± 100 nM; in test [3] it was 4.2 ± 0.2 µM; in test [4] it was 10.8 ± 0.8 µM; in [5], 6200 ± 600 nM; in test [6], 2600 ± 200 nM. Moreover, the GI50 came out at 7.5 ± 0.5 µM in [7], 7300 ± 400 nM in test [8], 4.1 ± 0.4 µM in test [9] and 2600 ± 200 nM in [10].
Regarding `CON(CCCCc1ccc(N(CCCl)CCCl)cc1)C1OC(COCc2ccccc2)C(OCc2ccccc2)C1OCc1ccccc1` (stereo not drawn) [Compound 16], the GI50 in [1] is more than 100 µM; in [2] it was 47000 ± 1000 nM; in test [3] it was 82 ± 1 µM; in [4], more than 100 µM; in test [5], more than 100000 nM; in test [6] it was 80000 ± 5000 nM. Moreover, the GI50 was more than 100 µM in test [7], 64000 ± 8000 nM in test [8], more than 100 µM in [9] and more than 100000 nM in test [10].
For `CON(CCCCc1ccc(N(CCCl)CCCl)cc1)C1OCC(O)C1O` (stereo not drawn) [Compound 19], the GI50 in test [1] came out at 5 ± 0.7 µM; in test [2], 1600 ± 100 nM; in [3], 8 ± 0.1 µM; in [4] it was 7.8 ± 0.9 µM; in [5] it was 2600 ± 900 nM; in test [6], 2400 ± 800 nM. For the same compound, the GI50 in test [7] was 3.1 ± 0.8 µM; in test [8] it was 770 ± 90 nM; in [9], 4.1 ± 0.9 µM; in [10], 1100 ± 100 nM.
Consider `CON(CCCCc1ccc(N(CCCl)CCCl)cc1)C1OC(CO)C(O)C(O)C1O` (stereo not drawn) [Compound 28], for which the GI50 in test [1] was 5.5 ± 0.2 µM; in test [2], 2900 ± 400 nM; in test [3] it was 1.5 ± 0.1 µM; in [4] it was 12.3 ± 0.7 µM; in [5], 3000 ± 100 nM; in test [6], 1800 ± 100 nM. Further, the GI50 in test [7] was found to be 4.5 ± 0.2 µM; in test [8] it was 2800 ± 200 nM; in test [9], 3.4 ± 0.1 µM; in test [10], 1400 ± 100 nM.
Regarding `CON(CCCCc1ccc(N(CCCl)CCCl)cc1)C1OC(CO)C(O)C(O)C1O` (stereo not drawn) [Compound 29], the GI50 is 7 ± 0.5 µM in test [1]; 4600 ± 400 nM in test [2]; 1.8 ± 0.2 µM in test [3]; 14.3 ± 0.9 µM in test [4]; 4500 ± 600 nM in test [5]; 2200 ± 100 nM in [6]. For the same compound, the GI50 in test [7] amounted to 6.8 ± 0.8 µM; in [8] it was 2800 ± 200 nM; in test [9] it was 5 ± 0.6 µM; in test [10], 1600 ± 100 nM.
For the compound `CON(CCCCc1ccc(N(CCCl)CCCl)cc1)C1CC(O)C(O)C(CO)O1` (stereo not drawn) [Compound 30], the GI50 stood at 4.3 ± 0.3 µM in test [1]; 1200 ± 200 nM in test [2]; 5.4 ± 0.1 µM in test [3]; 5.4 ± 0.6 µM in test [4]; 1120 ± 100 nM in [5]; 2500 ± 500 nM in test [6]. Further, the GI50 in test [7] was 3.1 ± 0.5 µM; in test [8], 700 ± 50 nM; in test [9], 3.7 ± 0.3 µM; in test [10], 580 ± 60 nM.
For the compound `CON(CCCCc1ccc(N(CCCl)CCCl)cc1)C1OC(CO)C(O)C(O)C1F` (stereo not drawn) [Compound 31], the GI50 in [1] worked out at 4.2 ± 0.1 µM; in [2], 2400 ± 200 nM; in test [3] it was 7.3 ± 0.1 µM; in [4], 6.4 ± 0.07 µM; in test [5], 2000 ± 100 nM; in [6], 2200 ± 100 nM. Besides, the concentration for 50% growth inhibition (GI50) in [7] was found to be 2.6 ± 0.1 µM; in test [8], 1080 ± 40 nM; in [9], 3.2 ± 0.1 µM; in test [10], 1200 ± 100 nM.
`CON(CCCCc1ccc(N(CCCl)CCCl)cc1)C1OC(CO)C(O)C(F)C1O` (stereo not drawn) [Compound 32]: the GI50 in test [1] came out at 4.1 ± 0.1 µM; in test [2] it was 2600 ± 200 nM; in test [3] it was 7 ± 0.8 µM; in test [4], 7.1 ± 0.9 µM; in [5] it was 2200 ± 100 nM; in [6], 2200 ± 100 nM. Besides, the GI50 in [7] was 3 ± 0.1 µM; in [8], 1200 ± 100 nM; in [9], 3.2 ± 0.1 µM; in test [10], 1300 ± 100 nM.
For the compound `COC1C(O)C(CO)OC(N(CCCCc2ccc(N(CCCl)CCCl)cc2)OC)C1O` (stereo not drawn) [Compound 33], the GI50 in [1] stood at 5.1 ± 0.1 µM; in test [2], 2700 ± 200 nM; in [3], 8.3 ± 0.1 µM; in test [4], 7.8 ± 0.08 µM; in [5] it was 2400 ± 100 nM; in [6] it was 2800 ± 100 nM. Further, the GI50 in test [7] was determined as 3.6 ± 0.2 µM; in test [8], 1100 ± 100 nM; in [9], 4.2 ± 0.2 µM; in [10], 1700 ± 100 nM.
As to `C=CCOC(=O)NCC1OC(N(CCCCc2ccc(N(CCCl)CCCl)cc2)OC)C(O)C(O)C1O` (stereo not drawn) [Compound 35], the GI50 in test [1] was 6.2 ± 0.4 µM; in test [2], 2800 ± 200 nM; in [3], 7.4 ± 0.1 µM; in test [4] it was 11 ± 0.1 µM; in test [5], 2900 ± 100 nM; in test [6] it was 3100 ± 100 nM. Further, the GI50 in test [7] was found to be 4.5 ± 0.3 µM; in test [8] it was 2100 ± 100 nM; in test [9] it was 4.6 ± 0.2 µM; in test [10], 2100 ± 100 nM.
In the case of `CON(CCCCc1ccc(N(CCCl)CCCl)cc1)C1OC(CCl)C(O)C(O)C1O` (stereo not drawn) [Compound 36], the GI50 in test [1] turned out to be 3.7 ± 0.1 µM; in test [2], 2100 ± 100 nM; in test [3], 4.9 ± 0.1 µM; in test [4] it was 5.8 ± 0.6 µM; in test [5], 2100 ± 100 nM; in [6] it was 2100 ± 100 nM. Further, the GI50 in test [7] is 3 ± 0.1 µM; in test [8], 1200 ± 100 nM; in test [9] it was 3.2 ± 0.2 µM; in test [10] it was 1300 ± 100 nM.
In the case of `CON(CCCCc1ccc(N(CCCl)CCCl)cc1)C1OC(C(=O)O)C(O)C(O)C1O` (stereo not drawn) [Compound 38], the GI50 in test [1] was 3.9 ± 0.1 µM; in [2], 3200 ± 300 nM; in test [3], 6 ± 0.1 µM; in [4], 9.1 ± 0.9 µM; in test [5], 3100 ± 100 nM; in test [6], 1600 ± 100 nM. Moreover, the GI50 in test [7] worked out at 5.5 ± 0.3 µM; in test [8] it was 1030 ± 50 nM; in test [9], 4.9 ± 0.3 µM; in test [10] it was 990 ± 30 nM.
On to `CON(CCCCc1ccc(N(CCCl)CCCl)cc1)C1O[C@H](CO)[C@@H](O[C@@H]2O[C@H](CO)[C@H](O)[C@H](O)[C@H]2O)[C@H](O)[C@@H]1O` (stereo partly drawn) [Compound 46], for which the GI50 in test [1] was 43 ± 3 µM; in test [2] it was 34000 ± 3000 nM; in test [3], 26 ± 2 µM; in [4], 57.7 ± 0.5 µM; in [5], 35000 ± 1000 nM; in test [6] it was 19100 ± 700 nM. The GI50 came to 56 ± 1 µM in test [7], 31000 ± 1000 nM in test [8], 38 ± 2 µM in [9] and 24000 ± 1000 nM in [10].
`CON(CCCCc1ccc(N(CCCl)CCCl)cc1)[C@@H]1O[C@H](CO[C@H]2O[C@H](CO)[C@H](O)[C@H](O)[C@H]2O)[C@@H](O)[C@H](O)[C@H]1O` [Compound 47]: the GI50 in test [1] came out at 36 ± 1 µM; in test [2], 27400 ± 300 nM; in test [3], 21 ± 2 µM; in test [4], 45.5 ± 0.4 µM; in [5], 27000 ± 1000 nM; in test [6] it was 16300 ± 500 nM. Also, the GI50 in test [7] was found to be 40 ± 2 µM; in test [8], 20000 ± 1000 nM; in [9], 29 ± 3 µM; in test [10] it was 17800 ± 60 nM.
For the compound `CON(CCCCc1ccc(N(CCCl)CCCl)cc1)[C@@H]1O[C@H](CO)[C@@H](O)[C@H](O[C@H](C)C(=O)O)[C@H]1NC(C)=O` [Compound 48], the GI50 in test [1] was found to be 8.9 ± 0.3 µM; in test [2] it was 6300 ± 300 nM; in test [3] it was 4.5 ± 0.3 µM; in [4], 13.1 ± 0.3 µM; in test [5], 7000 ± 200 nM; in test [6], 4100 ± 100 nM. The 50% growth inhibitory concentration (GI50) in [7] stood at 8.6 ± 0.6 µM; in [8] it was 3100 ± 200 nM; in test [9], 8 ± 0.4 µM; in test [10] it was 2400 ± 200 nM.
With `CO[C@@H]1[C@@H](OC(N)=O)[C@@H](O)C(N(CCCCc2ccc(N(CCCl)CCCl)cc2)OC)OC1(C)C` (stereo partly drawn) [Compound 49], the GI50 in [1] came to 6.7 ± 0.5 µM; in test [2], 6000 ± 100 nM; in test [3], 4.8 ± 0.9 µM; in test [4], 9.7 ± 0.5 µM; in [5], 5400 ± 800 nM; in test [6] it was 5100 ± 800 nM. Further, the GI50 in [7] was found to be 5.8 ± 0.8 µM; in [8] it was 1700 ± 200 nM; in [9], 6 ± 1 µM; in test [10], 1300 ± 200 nM.
